How the values were obtained:
[1] = test system: Foxtail (Setaria viridis); experiment: Upland soil application test, green foxtail; format: in vivo; details: 1200 h, soil application one day after seeding, 50 g ai/a, wettable powder, fresh weight on 50th day after spray, read-out: Herbicidal effects Foxtail (Setaria viridis)
Description: (§1) Resin-made 1/1000-are pots were filled with the soil of an upland field. After they were fertilized, cotton and soybean were seeded and 3 cm soil covering was applied. In addition, amaranth, common lambs-quarters, barnyardgrass, green foxtail, large crabgrass and johnsongrass were seeded and 1 cm soil covering was applied. One day later, a wettable powder prepared from a predetermined amount of each test compound in a similar manner to the procedures described in Formulation Example 1 was diluted with water and then sprayed evenly at an application rate equal to 10 l per are onto the surface of the soil by means of a pressure-operated sprayer. The weeds and crops were allowed to grow in a green house and influence to them were observed on the 50th day after the spray. The degree of damages of each test plant and the degree of injury to each crop were determined by measuring fresh weight in each group and indicated by % calculated according to the following formula. [formula]

[2] = test system: Foxtail (Setaria viridis); experiment: Upland foliar application test, green foxtail; format: in vivo; details: 960 h, foliar application at stage of 2-3 leaves, 50 g ai/a, emulsion, 40th day after spray, read-out: Herbicidal effects Foxtail (Setaria viridis)
Description: as §1
(§2) Resin-made 1/1000-are pots were filled with the soil of an upland field. After they were fertilized, cotton and soybean were seeded and 3 cm soil covering was applied. Five days later, amaranth, common lambsquarters, barnyardgrass, green foxtail, large crabgrass and johnsongrass were seeded and 1 cm soil covering was applied. They were allowed to grow in a green house. When each plant grew to the stage of 2-3 leaves, an emulsion formulated from a predetermined amount of each test compound in a similar manner to the procedures described in Formulation Example 11 was diluted with water and then sprayed at a predetermined application rate by means of a pressure-operated sprayer. The application rate was controlled at 5 l per are. Influence to the crops and weeds were observed on the 40th day after the spray of the herbicides. The results are shown in Table 4 in which the degree of damages of each test plant and the degree of injury to each crop are shown in a similar manner to Test 2.

[3] = test system: johnsongrass emerging from rhizome; experiment: Application test on johnsongrass emerging from rhizome; format: in vivo; details: foliar application at stage of 4-5 leaves, application rate of active ingredient 20 (unit not given), emulsion, 50th day after spray
Description: as §1
Resin-made 1/1000-are pots were filled with the soil of an upland field. After they were fertilized, rhizome of johnsongrass were transplanted to the pots and 3 cm soil covering was applied. They were allowed to grow in a green house. When each johnsongrass grew to the stage of 4-5 leaves, an emulsion formulated from a predetermined amount of each test compound in a similar manner to the procedures described in Formulation Example 11 was diluted with water and then sprayed at a predetermined application rate by means of a pressure-operated sprayer. The application rate was controlled at 5 l per are. The effect of each compound against the johnsongrass emerging from its rhizome was observed on the 50th day after the spray of the herbicides. The results are shown in Table 5 in which the herbicidal effect against johnsongrass is shown in a similar manner to Test 2.

[4] = test system: Crabgrass (Digitaria adscendens); experiment: Upland foliar application test, large crabgrass; format: in vivo; details: 960 h, foliar application at stage of 2-3 leaves, 50 g ai/a, emulsion, 40th day after spray, read-out: Herbicidal effects Crabgrass (Digitaria adscendens)
Description: as §1, §2

[5] = test system: Johnsongrass; experiment: Upland foliar application test, johnsongrass; format: in vivo; details: Sorghum halepense, 960 h; foliar application at stage of 2-3 leaves, 50 g ai/a, emulsion, 40th day after spray; read-out: Herbicidal effects Johnsongrass
Description: as §2

[6] = test system: Barnyardgrass (Echinochloa crusgalli); experiment: Upland foliar application test, barnyardgrass; format: in vivo; details: Echinochloa crus-galli, 960 h; foliar application at stage of 2-3 leaves, 50 g ai/a, emulsion, 40th day after spray; read-out: Herbicidal effects Barnyardgrass (Echinochloa crusgalli)
Description: as §2

[7] = test system: Amaranth (Amaranthus viridis); experiment: Upland foliar application test, amaranth; format: in vivo; details: 960 h, foliar application at stage of 2-3 leaves, 50 g ai/a, emulsion, 40th day after spray, read-out: Herbicidal effects Amaranth (Amaranthus viridis)
Description: as §1, §2

[8] = test system: Cotton (Gossypium indicum); experiment: Upland foliar application test, crop injury cotton; format: in vivo; details: foliar application at stage of 2-3 leaves, 50 g ai/a, emulsion, 40th day after spray
Description: as §1, §2

[9] = test system: ALS (acetolactate syntase) from barnyardgrass seedlings; experiment: ALS (acetolactate syntase) inhibition test, barnyardgrass enzyme; format: biochemical; details: 10,000 ppm (0.5 μg/0.5 ml) of compound; 1 hour at 30° C.; absorbance at 525 nm
Description: (§3) To determine the selectivity in enzyme level between crops and weeds, an ALS inhibition test was conducted using pea as a typical broadleaf crop and barnyardgrass as a representative gramineous weeds.
(§4) After seeds of pea and barnyardgrass were allowed to germinate at 25° C. for 8-14 days in a dark place, partially-purified suspensions (Suspensions A) of acetolactate syntase were separately obtained from the seedlings in accordance with the procedures described in the literature, Plant Physiology, 75, 827-831. In a test tube, 0.5 mg of one of test compounds was weighed, followed by the addition of 0.15 ml of a 20 mM K2 HPO4 solution and 0.25 ml of a reaction substrate medium which consisted of 40 mM of K2 HPO4, 40 mM of sodium pyruvate, 1 mM of TPP, 1 mM of MgCl2 and 20 μM of FAD so that 0.4 ml of a reaction solution (Solution B) was prepared. Added to 0.4 ml of Solution B was 0.1 ml of Suspension A. After the resultant mixture was shaken for 1 hour in a thermostat water bath controlled at 30° C., 50 μl of 6N sulfuric acid were added to terminate the reaction.
(§5) Next, the test tube with the reaction-terminated liquid mixture contained therein was transferred into a thermostat water bath controlled at 60° C. and was heated for 15 minutes. Thereafter, 0.5 ml of a 0.5% creatine solution and 0.5 ml of a 5% alkaline α-naphthol solution were added, and the resultant mixture was maintained at 60° C. for 15 minutes. As a result, the test solution developed a pink-to-red color. After the above operation, the absorbance of the test solution at 525 nm was measured by a spectrophotometer (Absorbance 1 of Test Compound).
(§6) Further, the absorbance (Absorbance 2 of Blank) of a solution obtained by subjecting a portion of Solution B to the above procedures without addition of any test compound and the absorbance (Absorbance 3 of sulfuric acid) of another solution obtained by subjecting another portion of Solution B to the above procedures which using 50 μl of 6N sulfuric acid as a test compound were also measured.

[10] = test system: common lambsquarters; experiment: Upland foliar application test, common lambsquarters; format: in vivo; details: Chenopodium album, 960 h; foliar application at stage of 2-3 leaves, 50 g ai/a, emulsion, 40th day after spray; read-out: Herbicidal effects Common lambquarters
Description: as §2

[11] = test system: Crabgrass (Digitaria adscendens); experiment: Upland soil application test, large crabgrass; format: in vivo; details: 1200 h, soil application one day after seeding, 50 g ai/a, wettable powder, fresh weight on 50th day after spray, read-out: Herbicidal effects Crabgrass (Digitaria adscendens)
Description: as §1

[12] = test system: Soybean (Glycine max); experiment: Upland foliar application test, crop injury soybean; format: in vivo; details: foliar application at stage of 2-3 leaves, 50 g ai/a, emulsion, 40th day after spray
Description: as §2

[13] = test system: ALS (acetolactate syntase) from pea seedlings; experiment: ALS (acetolactate syntase) inhibition test, pea enzyme; format: biochemical; details: 10,000 ppm (0.5 μg/0.5 ml) of compound; 1 hour at 30° C.; absorbance at 525 nm
Description: as §3, §4, §5, §6

[14] = test system: Barnyardgrass (Echinochloa crusgalli); experiment: Upland soil application test, barnyardgrass; format: in vivo; details: Echinochloa crus-galli, 1200 h; soil application one day after seeding, 50 g ai/a, wettable powder, fresh weight on 50th day after spray; read-out: Herbicidal effects Barnyardgrass (Echinochloa crusgalli)
Description: as §1

[15] = test system: Cotton (Gossypium indicum); experiment: Upland soil application test, crop injury cotton; format: in vivo; details: soil application one day after seeding, 50 g ai/a, wettable powder, fresh weight on 50th day after spray
Description: as §1

[16] = test system: common lambsquarters; experiment: Upland soil application test, common lambsquarters; format: in vivo; details: Chenopodium album, 1200 h; soil application one day after seeding, 50 g ai/a, wettable powder, fresh weight on 50th day after spray; read-out: Herbicidal effects Common lambquarters
Description: as §1

[17] = test system: Soybean (Glycine max); experiment: Upland soil application test, crop injury soybean; format: in vivo; details: soil application one day after seeding, 50 g ai/a, wettable powder, fresh weight on 50th day after spray
Description: as §1

[18] = test system: Amaranth (Amaranthus viridis); experiment: Upland soil application test, amaranth; format: in vivo; details: 1200 h, soil application one day after seeding, 50 g ai/a, wettable powder, fresh weight on 50th day after spray, read-out: Herbicidal effects Amaranth (Amaranthus viridis)
Description: as §1

[19] = test system: Johnsongrass; experiment: Upland soil application test, johnsongrass; format: in vivo; details: Sorghum halepense, 1200 h; soil application one day after seeding, 50 g ai/a, wettable powder, fresh weight on 50th day after spray; read-out: Herbicidal effects Johnsongrass
Description: as §1

SMILES	pest or weed control at 5000 g/ha [1] [%]	pest or weed control at 5000 g/ha [2] [%]	Herbicidal effect against johnsongrass emerging from rhizome [3] [%]	pest or weed control at 5000 g/ha [4] [%]	pest or weed control at 5000 g/ha [5] [%]	pest or weed control at 5000 g/ha [6] [%]	pest or weed control at 5000 g/ha [7] [%]	Crop injury Cotton (Gossypium indicum) [8] [%]	Enzymoreaction inhibition rate (%) Barnyardgrass [9] [%]	pest or weed control at 5000 g/ha [10] [%]	pest or weed control at 5000 g/ha [11] [%]	Crop injury Soybean (Glycine max) [12] [%]	Enzymoreaction inhibition rate (%) Pea [13] [%]	pest or weed control at 5000 g/ha [14] [%]	Crop injury Cotton (Gossypium indicum) [15] [%]	pest or weed control at 5000 g/ha [16] [%]	Crop injury Soybean (Glycine max) [17] [%]	pest or weed control at 5000 g/ha [18] [%]	pest or weed control at 5000 g/ha [19] [%]
CCCCCCCOC(OCCCCCCC)c1ccccc1Oc1nc(OC)cc(OC)n1 [Compound No. 6]	100	95	85	90	100	95	95	0	100	90	85	0	0	95	0	90	0	95	100
CCCCOC(OCCCC)c1ccccc1Oc1nc(OC)cc(OC)n1 [Compound No. 3, 2-(4,6-dimethoxypyrimidin-2-yloxy)benzaldehyde di-n-butylacetal]	100	100	100	100	100	100	100	0	100	100	100	0	0	100	0	100	0	100	100
CCCOC(OCCC)c1ccccc1Oc1nc(OC)cc(OC)n1 [Compound No. 1]	100	100	100	100	100	100	100	0	100	100	100	0	0	100	0	100	0	100	100

From US5178662A, “Benzaldehyde acetal compounds, preparation process thereof, and herbicidal compositions containing the same as active ingredients” (Mitsui Toatsu Chemicals, Inc., priority 1990, dated 1993)
